Measured values published in patent US20240352494A1, “HETEROLOGOUS PRODUCTION OF […] YEASTS” (ADAMA CHILE SA, priority 2021, published 2024).

Tested on: A. thaliana seedlings
Experiment: hypocotyl length assay (inhibition of hypocotyl elongation)
Assay type: in vivo, A. thaliana Col-0
Conditions: tZ standard at 0.14, 0.28 and 0.56 mg/L (mean of all treatments, no significant difference between them); seedlings grown in darkness, measured after 8 days
Method: The bioactivity of the produced cytokinins was tested in A. thaliana by hypocotyl length assay. This assay is based on the capacity of cytokinins to inhibit hypocotyl elongation in A. thaliana seedlings (Cary et al., 1995, Plant Physiol., 107 (4): 1075-1082). Seeds of A. thaliana Col-0 were surface sterilized, sown on 0.5× Murashige and Skoog (MS) medium (Murashige and Skoog, 1962, Physiol. Plant., 15(13):473-497) (0.7% agar) without sucrose, and stratified in darkness for 3 days at 4° C. Seedlings were grown in complete darkness in a growth cabinet at 21°° C. Hypocotyl lengths were determined after 8 days of growth, and at least 15 seedlings were measured for each treatment.

C/C(=C\CNc1ncnc2nc[nH]c12)CO [tZ standard, trans-zeatin]
mean reduction in hypocotyl lengths: 58%
